Measured values reported in patent US10800807B2, “TGR5 modulators and methods of use thereof” (Intercept Pharmaceuticals, Inc., priority 2015, dated 2020).
Positions count from the first letter of the chain named. Values after ≈ are worked out from the molar mass of the structure shown. Where two headings read alike, the source gives them in different places.

What was measured:
Water solubility = format: physicochemical; settings: 0.1 M HCl, pH 1.00, 25° C., read-out: Ws
Experimental: BA were suspended in 100 ml of 0.1 M HCl, pH 1.00, and the saturated solutions were transferred to a thermostat-equipped water bath maintained at 25° C. After incubation for 1 week, the solutions were filtered on a Millipore filter ([…]), and the concentration of BA was measured by HPLC-ESMS/MS as reported below.

[1] = Critical micellar concentration (surface tension / dye solubilization); format: physicochemical; settings: for CMC: BA sodium salts in 0.1 M NaCl, 25° C.; for STCMC: surface tension at CMC
Experimental: In the first method, the surface tension was performed by maximum bubble-pressure method using a Sensadyne 6000 tensiometer (Chem-Dyne Research Corp., Milwaukee, Wis.). The surface tension of aqueous solutions at various concentrations (range 0.1-100 mM) of the BA sodium salts in 0.1 M NaCl was measured at 25° C. The surface tension values were plotted against the logarithm of the bile salt concentration; the regression lines corresponding to the two parts of the curve (monomeric and micellar phases) were calculated using the method of least squares. The critical micellar concentration (CMC) value (mM) was obtained by the intersection of the two lines.
The second method is based on the fact that some dyes, specifically Orange OT ([…]), are almost insoluble in water but dissolve in solutions with micellar aggregates that incorporate them; thus, the intensity of color of the solution increases with bile salt concentration (after CMC achievement). The amount of dye solubilized in relation to bile salt concentration was determined spectrophotometrically.
For each bile acid, various solution at different concentrations, between 50 mM and 0.1 mM with appropriate dilutions, were incubated under stirring at room temperature for 3 days with an excess of Orange OT. Then all the solutions were centrifuged and filtered through a 0.22 μm Millipore fiiter (Millipore Corp., Bedford, Mass.).

[2] = Lipophilicity, 1-octanol/water partition coefficient (shake-flask); format: physicochemical; settings: pH 8.00, ionized BA
Experimental: The experiments were carried out on 1 mM initial bile salt solution buffered at pH 8.00 with 0.1 M potassium phosphate buffer to ensure complete ionization of the BA. BA concentration in the water phase before and after partition in 1-octanol was measured by HPLC-ESMS/MS as reported below.

bovine serum albumin = bovine serum albumin (Bos taurus, UniProt P02769); assay: Albumin binding by equilibrium dialysis; format: in vitro ADME; settings: 5% bovine serum albumin saline solution, 25° C.
Sequence of bovine serum albumin (P02769 25-607): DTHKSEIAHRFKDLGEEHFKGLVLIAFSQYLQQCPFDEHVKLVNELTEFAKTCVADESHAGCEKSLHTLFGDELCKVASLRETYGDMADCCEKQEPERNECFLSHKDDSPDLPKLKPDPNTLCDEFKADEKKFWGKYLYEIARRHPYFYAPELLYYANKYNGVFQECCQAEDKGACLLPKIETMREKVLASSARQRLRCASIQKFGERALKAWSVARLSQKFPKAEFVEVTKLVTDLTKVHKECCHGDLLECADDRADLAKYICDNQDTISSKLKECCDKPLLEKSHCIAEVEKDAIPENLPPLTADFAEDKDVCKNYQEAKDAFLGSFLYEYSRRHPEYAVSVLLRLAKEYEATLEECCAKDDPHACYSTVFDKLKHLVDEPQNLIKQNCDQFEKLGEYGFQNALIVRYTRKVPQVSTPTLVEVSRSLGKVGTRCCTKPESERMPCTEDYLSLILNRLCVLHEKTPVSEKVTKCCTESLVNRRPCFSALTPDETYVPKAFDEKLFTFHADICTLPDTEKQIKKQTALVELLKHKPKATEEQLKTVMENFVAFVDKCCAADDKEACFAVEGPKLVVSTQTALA
Experimental: BA was dissolved at a concentration of […] in 5% bovine serum albumin saline solution and left to stand for 24 hours at 25° C. Two milliliters of this solution was dialyzed in cellulose sacs with a molecular weight cut-off of 12-14 kDa (Spectra/Por; Spectrum Medical Industries Inc., Rancho Dominguez, Calif.) against 25 ml of saline solution. The system was equilibrated by mechanical shaking for 72 hours at 25° C. BA concentrations in the starting solution and in the dialyzed solution were determined by HPLC-ES-MS/MS as reported below.

mTGR5 = biological target: T1, mTGR5 (Mus musculus, UniProt Q80SS6); assay: TGR5 activity: cAMP in mTGR5 CHO-Pi10 clone 4 cells; format: cell-based; settings: for Emax: 0.5 h, read-out: (mTGR5 CHO) Efficacy
T1 construct: expressed in transfected cells; host or cells: CHO-Pi10 clone 4
T1 sequence (Q80SS6 1-329): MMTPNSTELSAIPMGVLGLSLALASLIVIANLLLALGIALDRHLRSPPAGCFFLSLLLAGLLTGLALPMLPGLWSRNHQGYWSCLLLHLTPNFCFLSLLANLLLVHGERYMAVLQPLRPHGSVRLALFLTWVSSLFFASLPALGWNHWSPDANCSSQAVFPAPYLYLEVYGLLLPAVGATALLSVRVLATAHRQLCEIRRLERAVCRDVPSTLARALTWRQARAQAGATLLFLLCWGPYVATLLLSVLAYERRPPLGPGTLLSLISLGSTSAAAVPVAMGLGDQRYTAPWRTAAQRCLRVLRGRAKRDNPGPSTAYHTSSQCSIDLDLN

[3] = biological target: T2, human glutathione transferase-tagged FXR-LBD (Homo sapiens, UniProt Q96RI1); assay: FXR AlphaScreen coactivator recruitment assay (human); format: biochemical; design: Emax: dose or concentration left out as unconfirmed; settings: for EC50: human FXR-LBD, AlphaScreen, read-out: hFXR EC50; for Emax: read-out: hFXR Efficacy;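 for hFXR Efficacy: CDCA at 50 µM taken as 100%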
T2 construct: human glutathione transferase-tagged FXR-LBD (Life Technologies, USA); purchased Life Technologies, USA
T2 sequence (Q96RI1 262-486 limits assumed): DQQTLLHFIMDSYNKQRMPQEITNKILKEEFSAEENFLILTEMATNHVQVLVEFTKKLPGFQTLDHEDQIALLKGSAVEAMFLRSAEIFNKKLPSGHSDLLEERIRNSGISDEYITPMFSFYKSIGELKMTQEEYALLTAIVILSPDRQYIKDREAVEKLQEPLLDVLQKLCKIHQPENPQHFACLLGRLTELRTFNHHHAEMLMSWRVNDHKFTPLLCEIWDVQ
Experimental: (§1) Activation of the FXR receptor was determined using a recruitment coactivator assay, namely AlphaScreen technology. The assays were performed using human glutathione transferase-tagged FXR-LBD (Life Technologies, USA) and mouse glutathione transferase-tagged FXR-LBD (generated in-house). Briefly, assays were conducted in white, low-volume, 384-well OptiPlate using a final volume of 25 μL containing 10 nM glutathione transferase-tagged FXR-LBD protein and 30 nM biotinylated Src-1 peptide. The stimulation was carried out with different BA concentrations for 30 minutes at 25° C. […] Dose-response curves were performed in triplicate and Z′ factor was used to validate the robustness of the assay.

[4] = biological target: T3, mouse glutathione transferase-tagged FXR-LBD (Mus musculus, UniProt Q60641); assay: FXR AlphaScreen coactivator recruitment assay (mouse); format: biochemical; settings: mouse FXR-LBD, value in parentheses; for EC50: read-out: (mFXR) EC50; for Emax: read-out: (mFXR) Efficacy
T3 construct: mouse glutathione transferase-tagged FXR-LBD (generated in-house); made in house
T3 sequence (Q60641 264-488 limits assumed): T2 sequence (Q96RI1 262-486 limits assumed) with H7D, F8Y, N46S, V50I, S95A, S98A, N107K, I125V, I174M, H175Y
Experimental: as §1

[5] = Critical micellar concentration (surface tension / dye solubilization); format: physicochemical
TGR5 [6] = biological target: T4, TGR5 (Homo sapiens, UniProt Q8TDU6); assay: TGR5 activity: intracellular cAMP levels, NCI-H716 cells (HTR-FRET); format: cell-based; design: endogenous in cells; host or cells: NCI-H716; settings: for Emax: read-out: TGR5 (NCI-H716) Efficacy; for EC50: cAMP
T4 sequence (Q8TDU6 1-330): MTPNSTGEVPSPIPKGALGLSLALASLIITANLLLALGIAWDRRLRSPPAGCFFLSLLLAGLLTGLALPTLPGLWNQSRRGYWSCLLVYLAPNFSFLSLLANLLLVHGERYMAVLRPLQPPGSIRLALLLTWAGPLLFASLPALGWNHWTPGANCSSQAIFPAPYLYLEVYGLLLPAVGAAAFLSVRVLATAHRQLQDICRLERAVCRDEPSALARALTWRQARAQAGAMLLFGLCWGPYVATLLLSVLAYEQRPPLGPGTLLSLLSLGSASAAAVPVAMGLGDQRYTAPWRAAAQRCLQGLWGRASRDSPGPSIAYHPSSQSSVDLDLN
Experimental: Activation of TGR5 was assessed by measuring the level of cAMP using an HTR-FRET assay. Thus, NCI-H716 cells were cultured on 96-well plates coated with Matrigel (Corning, USA) (0.75 mg/ml) in DMEM supplemented with 10% FCS, 100 units/ml penicillin, and 100 μg/ml streptomycin sulphate. […] The level of intracellular cAMP was determined with Lance kit. Z′ factor was used to validate assays.

TGR5 [7] = biological target: T4, TGR5; assay: TGR5 activity: cAMP in hTGR5 CHO-k1 cells; format: cell-based; design: expressed in transfected cells; host or cells: CHO-k1; settings: for Emax: 0.5 h, read-out: hTGR5 CHO Efficacy; for EC50: cAMP
[8] = simulated gastric fluid, thermodynamic from solid
[9] = mTGR5 CHO cells, value in parentheses
[10] = 1 h, NCI-H716 cells, Ref. LCA 100% at 10 μM
[11] = hTGR5 CHO cells, Ref. LCA 100% at 10 μM

CC[C@H]1[C@@H](O)C2C3CC[C@H]([C@H](C)C[C@@H](CO)C(=O)O)[C@@]3(C)[C@@H](O)CC2[C@@]2(C)CC[C@@H](O)C[C@@H]12 (stereo partly drawn) [Compound 4, 3α,7α,12α-Trihydroxy-6α-ethyl-23(A)-hydroxymethyl-5β-cholan-24-oic acid]
solubility thermodynamic at 1 week (Water solubility; [8]): 3200 µM (≈ 1490 µg/mL)
CMC [1]: 5 mM
LogPA− [2]: −0.2
Albumin binding (%) (bovine serum albumin): 55%
Emax (mTGR5; CHO): 102%
EC50 (mTGR5; [9]): 1300 nM
EC50 [3]: 80000 ± 30000 nM
Emax [3]: 20 ± 2%
EC50 [4]: > 150000 nM
pKa (pKa): 4.36
CMpH [5]: 4.5
Emax (TGR5 [6]; NCI-H716, 1 h): 77 ± 10%
EC50 (TGR5 [6]; NCI-H716 cells): 7500 ± 5000 nM
Emax (TGR5 [7]; CHO): 99 ± 1.4%
EC50 (TGR5 [7]; hTGR5 CHO cells): 4650 ± 500 nM

CC[C@H]1[C@@H](O)[C@@H]2[C@H](C[C@H](O)[C@]3(C)[C@@H]([C@H](C)C[C@H](F)C(=O)O)CC[C@@H]23)[C@@]2(C)CC[C@@H](O)C[C@@H]12 [Compound 8, 3α,7α,12α-Trihydroxy-6α-ethyl-23(S)-fluoro-5β-cholan-24-oate]
solubility thermodynamic at 1 week (Water solubility; [8]): 971 µM (≈ 441 µg/mL)
CMC [1]: 6 mM
LogPA− [2]: 0.01
Albumin binding (%) (bovine serum albumin): 84%
Emax (mTGR5; [9]): 100%
EC50 (mTGR5; [9]): 780 nM
EC50 [3]: 5600 ± 1000 nM
Emax [3]: 113 ± 3%
EC50 [4]: 59500 nM
Emax [4]: 47%
pKa (pKa): 2.82
CMpH [5]: 3.6
Emax (TGR5 [6]; [10]): 97 ± 1.7%
EC50 (TGR5 [6]; NCI-H716 cells): 7000 ± 3000 nM
Emax (TGR5 [7]; [11]): 103 ± 2%
EC50 (TGR5 [7]; hTGR5 CHO cells): 500 ± 100 nM

CC[C@H]1[C@@H](O)[C@@H]2[C@H](C[C@H](O)[C@]3(C)[C@@H]([C@H](C)C[C@@H](F)C(=O)O)CC[C@@H]23)[C@@]2(C)CC[C@@H](O)C[C@@H]12 [Compound 9, 3α,7α,12α-Trihydroxy-6α-ethyl-23(R)-fluoro-5β-cholan-24-oate]
solubility thermodynamic at 1 week (Water solubility; [8]): 469 µM (≈ 213 µg/mL)
CMC [1]: 6 mM
LogPA− [2]: 0.2
Albumin binding (%) (bovine serum albumin): 89%
Emax (mTGR5; [9]): 90%
EC50 (mTGR5; [9]): 1800 nM
EC50 [3]: 2900 ± 900 nM
Emax [3]: 147 ± 20%
EC50 [4]: 55000 nM
Emax [4]: 127%
pKa (pKa): 2.82
CMpH [5]: 3.9
Emax (TGR5 [6]; [10]): 75 ± 6%
EC50 (TGR5 [6]; NCI-H716 cells): 22000 ± 3000 nM
Emax (TGR5 [7]; [11]): 98 ± 2%
EC50 (TGR5 [7]; hTGR5 CHO cells): 1400 ± 300 nM

CC[C@H]1[C@@H](O)C2C3CC[C@H]([C@H](C)CC(F)(F)C(=O)O)[C@@]3(C)CCC2[C@@]2(C)CC[C@@H](O)C[C@@H]12 (stereo partly drawn) [Compound 10, 3α,7α-Dihydroxy-6α-ethyl-23,23-gemdifluoro-5β-cholan-24-oic acid]
solubility thermodynamic at 1 week (Water solubility; [8]): 16 µM (≈ 7.31 µg/mL)
CMC [1]: 8.5 mM
LogPA− [2]: 1.4
Albumin binding (%) (bovine serum albumin): 66%
Emax (mTGR5; [9]): 102%
EC50 (mTGR5; [9]): 600 nM
EC50 [3]: 200 ± 40 nM
Emax [3]: 128 ± 4%
EC50 [4]: 7100 nM
Emax [4]: 143%
pKa (pKa): 1.1
CMpH [5]: 3.7
Emax (TGR5 [6]; [10]): 125 ± 1%
EC50 (TGR5 [6]; NCI-H716 cells): 1600 ± 200 nM
Emax (TGR5 [7]; [11]): 103 ± 1%
EC50 (TGR5 [7]; hTGR5 CHO cells): 340 ± 40 nM

C[C@H](CCC(=O)NCC(=O)O)[C@H]1CC[C@H]2[C@@H]3[C@H](O)C[C@@H]4C[C@H](O)CC[C@]4(C)[C@H]3CC[C@]12C [GCDCA, reference compound]
solubility thermodynamic at 1 week (Water solubility): 7 µM (≈ 3.15 µg/mL)
CMC [1]: 2 mM
STCMC [1]: 45.2 Dyne/cm
LogPA− [2]: 0.4
Albumin binding (%) (bovine serum albumin): 85%
pKa (pKa): 3.9
CMpH [5]: 6.4

C[C@H](CC(=O)O)[C@H]1CC[C@H]2[C@@H]3[C@H](O)C[C@@H]4C[C@H](O)CC[C@]4(C)[C@H]3CC[C@]12C [Nor-CDCA, 24-nor-CDCA, reference compound]
solubility thermodynamic at 1 week (Water solubility): 23 µM (≈ 8.71 µg/mL)
CMC [1]: 20 mM
LogPA− [2]: 0.5
Albumin binding (%) (bovine serum albumin): 95%
pKa (pKa): 5
CMpH [5]: 7.9

CC[C@H]1[C@@H](O)C2C3CC[C@H]([C@H](C)CCC(=O)O)[C@@]3(C)CCC2[C@@]2(C)CC[C@@H](O)C[C@@H]12 (some centres unmarked) [Ref. Cmpd. B, reference compound]
solubility thermodynamic at 1 week (Water solubility; [8]): 9 µM (≈ 3.79 µg/mL)
CMC [1]: 2.9 mM
STCMC [1]: 48.8 Dyne/cm
LogPA− [2]: 2.5
Albumin binding (%) (bovine serum albumin): 96%
pKa (pKa): 5
CMpH [5]: 7.2
